In one experiment the test system is EBC-1. The experiment is described as follows: Growth inhibition of human EBC-1 cells assessed as cell viability incubated for 5 days by CellTiter-Glo assay. The format is functional. The following applies: EBC-1, 120 h, time 5 day.
Experiment [1] concerns the target von Hippel-Lindau disease tumor suppressor/Bcl-2-like protein 1 (Homo sapiens, UniProt P40337+Q07817). The experiment is described as follows: Protac activity at VHL/BCL-xl in human NCI-H1650 cells assessed as induction of BCL-xl degradation by Nano-Glo HiBiT assay. The format is cell-based.

Chain of von Hippel-Lindau disease tumor suppressor/Bcl-2-like protein 1 (Q07817 whole entry): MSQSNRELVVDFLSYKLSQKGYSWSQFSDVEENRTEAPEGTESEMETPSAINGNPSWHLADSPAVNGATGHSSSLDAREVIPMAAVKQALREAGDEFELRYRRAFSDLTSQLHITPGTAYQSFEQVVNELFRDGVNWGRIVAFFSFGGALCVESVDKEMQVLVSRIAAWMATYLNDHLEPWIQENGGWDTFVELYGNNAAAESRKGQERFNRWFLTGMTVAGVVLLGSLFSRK
Chain of von Hippel-Lindau disease tumor suppressor/Bcl-2-like protein 1 (P40337 whole entry): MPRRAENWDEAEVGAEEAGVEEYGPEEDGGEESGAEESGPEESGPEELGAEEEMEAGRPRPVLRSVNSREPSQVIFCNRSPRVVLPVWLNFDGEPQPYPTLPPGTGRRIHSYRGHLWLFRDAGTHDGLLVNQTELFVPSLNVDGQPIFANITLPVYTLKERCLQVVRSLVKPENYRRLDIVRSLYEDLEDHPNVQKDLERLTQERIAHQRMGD

Regarding `Cc1ncsc1-c1ccc([C@H](C)NC(=O)[C@@H]2C[C@@H](O)CN2C(=O)[C@@H](NC(=O)CCCCCCN(C)CCOC23C[C@@]4(C)C[C@@](C)(C2)C[C@@](Cn2ncc(-c5ccc(N6CCCc7c6nnc(Nc6nc8ccccc8s6)c7C)nc5C(=O)O)c2C)(C3)C4)C(C)(C)C)cc1`, the GI50 in the experiment with EBC-1 stood at 9 nM. The half-maximal effective concentration (EC50) in experiment [1] amounted to 3 nM.
In the same order, the values of `Cc1ncsc1-c1ccc([C@H](C)NC(=O)[C@@H]2C[C@@H](O)CN2C(=O)[C@@H](NC(=O)CCCCCCCCN(C)CCOC23C[C@@]4(C)C[C@@](C)(C2)C[C@@](Cn2ncc(-c5ccc(N6CCCc7c6nnc(Nc6nc8ccccc8s6)c7C)nc5C(=O)O)c2C)(C3)C4)C(C)(C)C)cc1` are 23 nM and 2 nM.
On to `Cc1ncsc1-c1ccc([C@H](C)NC(=O)[C@@H]2C[C@@H](O)CN2C(=O)[C@@H](NC(=O)CCCCCCCN(C)CCOC23C[C@@]4(C)C[C@@](C)(C2)C[C@@](Cn2ncc(-c5ccc(N6CCCc7c6nnc(Nc6nc8ccccc8s6)c7C)nc5C(=O)O)c2C)(C3)C4)C(C)(C)C)cc1`, for which, in the experiment with EBC-1, the GI50 came to 13 nM. The EC50 in experiment [1] was determined as 3 nM.
With `Cc1ncsc1-c1ccc([C@H](C)NC(=O)[C@@H]2C[C@@H](O)CN2C(=O)[C@@H](NC(=O)CCCCCCCCCCCCCCN(C)CCOC23C[C@@]4(C)C[C@@](C)(C2)C[C@@](Cn2ncc(-c5ccc(N6CCCc7c6nnc(Nc6nc8ccccc8s6)c7C)nc5C(=O)O)c2C)(C3)C4)C(C)(C)C)cc1`, the GI50 in the experiment on EBC-1 was 2 nM. Also, the EC50 in experiment [1] was 1 nM.
In the case of `Cc1ncsc1-c1ccc([C@H](C)NC(=O)[C@@H]2C[C@@H](O)CN2C(=O)[C@@H](NC(=O)CCCCCCCCCCCCCCCN(C)CCOC23C[C@@]4(C)C[C@@](C)(C2)C[C@@](Cn2ncc(-c5ccc(N6CCCc7c6nnc(Nc6nc8ccccc8s6)c7C)nc5C(=O)O)c2C)(C3)C4)C(C)(C)C)cc1`, the GI50 with EBC-1 worked out at 5 nM. Further, the EC50 in experiment [1] came out at 1 nM.
As to `Cc1ncsc1-c1ccc([C@H](C)NC(=O)[C@@H]2C[C@@H](O)CN2C(=O)[C@@H](NC(=O)CCCCCCCCCCCN(C)CCOC23C[C@@]4(C)C[C@@](C)(C2)C[C@@](Cn2ncc(-c5ccc(N6CCCc7c6nnc(Nc6nc8ccccc8s6)c7C)nc5C(=O)O)c2C)(C3)C4)C(C)(C)C)cc1`, the GI50 in the experiment on EBC-1 came out at 13 nM. Further, the half-maximal effective concentration (EC50) in experiment [1] came out at 1 nM.
As for `Cc1ncsc1-c1ccc([C@H](C)NC(=O)[C@@H]2C[C@@H](O)CN2C(=O)[C@@H](NC(=O)CCCCCCCCCCCCCN(C)CCOC23C[C@@]4(C)C[C@@](C)(C2)C[C@@](Cn2ncc(-c5ccc(N6CCCc7c6nnc(Nc6nc8ccccc8s6)c7C)nc5C(=O)O)c2C)(C3)C4)C(C)(C)C)cc1`, the 50% growth inhibitory concentration (GI50) with EBC-1 stood at 1 nM.

Source of the values: ChEMBL document CHEMBL5316379, “Potent and Selective BCL-XL Inhibitors and PROTAC Compounds as Potential Cancer Treatment and Immunotherapy” (ACS Med Chem Lett, 2023).
